Consider five compounds from US5032588A, “Thiazole lipoxygenase-inhibiting compounds derived from non-steroidal antiinflammatory carboxylic acids” (Abbott Laboratories, priority 1989, dated 1991).

The structures appear in SMILES notation.

In this assay the target is T1, 5-lipoxygenase (Rattus norvegicus, UniProt P12527).
T1 construct: 20,000x g supernatant from homogenized RBL-1 cells; endogenous in cells; host or cells: RBL-1 cells (20,000 x g supernatant of homogenate)
T1 sequence (P12527 1-673): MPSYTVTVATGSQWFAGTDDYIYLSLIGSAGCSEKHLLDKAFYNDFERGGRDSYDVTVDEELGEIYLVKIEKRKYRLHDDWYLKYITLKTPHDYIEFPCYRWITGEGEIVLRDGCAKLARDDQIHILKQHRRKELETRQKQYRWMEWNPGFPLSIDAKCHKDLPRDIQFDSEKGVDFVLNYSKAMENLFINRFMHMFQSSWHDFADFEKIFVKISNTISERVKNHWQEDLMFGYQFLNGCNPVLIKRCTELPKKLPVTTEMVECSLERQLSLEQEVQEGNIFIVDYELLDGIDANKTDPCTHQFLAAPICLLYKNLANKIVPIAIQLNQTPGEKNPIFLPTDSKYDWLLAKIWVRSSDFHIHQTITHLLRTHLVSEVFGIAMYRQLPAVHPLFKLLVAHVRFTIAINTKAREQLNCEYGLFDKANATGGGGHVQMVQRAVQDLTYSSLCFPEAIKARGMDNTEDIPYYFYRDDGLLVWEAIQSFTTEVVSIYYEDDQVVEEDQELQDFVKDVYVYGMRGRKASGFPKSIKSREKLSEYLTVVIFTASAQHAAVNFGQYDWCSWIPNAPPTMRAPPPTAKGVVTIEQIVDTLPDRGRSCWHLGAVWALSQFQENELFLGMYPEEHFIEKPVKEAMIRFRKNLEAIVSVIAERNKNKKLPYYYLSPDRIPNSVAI
As to the kind of experiment: Inhibition of 5-lipoxygenase activity (20,000x g supernatant from homogenized RBL-1 cells). Type of assay: biochemical. The note with it: linear regression of percentage inhibition versus log inhibitor concentration, read-out: IC50 (concentration of compound producing 50% enzyme inhibition). The protocol: Inhibition of 5-lipoxygenase activity was determined using the 20,000x g supernatant from homogenized RBL-1 cells in a similar manner as that described by Dyer and coworkers (Dyer, R. D.; Haviv, F.; Hanel, A. M.; Bornemier, D. A.; Carter, G. W. Fed. Proc., Fed. Am. Soc. Exp. Biol., 43:1462A, (1984).) IC50 values (concentration of compound producing 50% enzyme inhibition) were calculated by linear regression analysis of percentage inhibition versus log inhibitor concentration plots.
Consider `CCC(c1ccc(CC(C)C)cc1)c1nc(O)c(-c2ccccc2)s1` (centres unmarked) [Example 4, 2-[1-(4-isobutylphenyl)propyl]-5-phenyl-4-hydroxythiazole], for which the IC50 stood at 60 nM. In the case of `COc1ccc2cc(C(C)c3sc(-c4ccccc4)nc3O)ccc2c1` (centres unmarked) [Example 5, 5-[1-(6-methoxy-2-naphthyl)ethyl]-2-phenyl-4-hydroxythiazole], the IC50 stood at 900 nM. For the compound `COc1ccc2cc(C(C)c3nc(O)c(-c4ccccc4)s3)ccc2c1` (centres unmarked) [Example 1, 2-[1-(6-methoxy-2-naphthyl)ethyl]-5-phenyl-4-hydroxythiazole], the IC50 came out at 420 nM.

As to `CC(C)Cc1ccc(Cc2nc(O)c(-c3ccccc3)s2)cc1` [Example 3, 2-[(4-isobutylphenyl)methyl]-5-phenyl-4-hydroxythiazole], the IC50 came to 1100 nM. Consider `CC(C)Cc1ccc(C(C)c2nc(O)c(-c3ccccc3)s2)cc1` (centres unmarked) [Example 2, 2-[1-(4-isobutylphenyl)ethyl]-5-phenyl-4-hydroxy-thiazole], for which the IC50 was determined as 710 nM.
